Data from patent US5607926A, “Cephalosporin antibiotics” (Microcide Pharmaceuticals, Inc., priority 1995, dated 1997).
Converted amounts (≈) assume the structure as drawn. Read-outs that look alike come from different tables or passages of the source.

Experiments:
Type in all cases: cell-based
E. faecium ATCC 35667 = assay: In vitro antibacterial evaluation, MIC by agar dilution, E. faecium ATCC 35667; settings: Enterococcus faecium, ATCC35667, read-out: MIC
In short: (§1)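 In this standardized agar dilution format, compound was dissolved in PBS pH 7.2, with Tween 20 or DMSO as needed, and mixed into molten Mueller-Hinton agar to final levels of 128 down to ≤0.25 μg/mL. About 10^4 cfu were spotted per isolate, and MIC was recorded after 16-20 h at 35°-36° C.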

[1] = test system: S. epidermidis ATCC 31432; assay: In vitro antibacterial evaluation, MIC by agar dilution, S. epidermidis ATCC 31432; settings: Staphylococcus epidermidis, ATCC31432
In short: as §1

S. haemolyticus (Meth^R) = assay: In vitro antibacterial evaluation, MIC by agar dilution, S. haemolyticus; settings: Staphylococcus haemolyticus, read-out: MIC
In short: as §1

S. aureus ATCC 25923 = assay: In vitro antibacterial evaluation, MIC by agar dilution, S. aureus ATCC 25923; settings: Staphylococcus aureus, ATCC25923
In short: as §1

E. coli ATCC 25922 = assay: In vitro antibacterial evaluation, MIC by agar dilution, E. coli ATCC 25922; settings: Escherichia coli, ATCC25922, read-out: MIC
In short: as §1

P. aeruginosa ATCC 27853 = assay: In vitro antibacterial evaluation, MIC by agar dilution, P. aeruginosa ATCC 27853; settings: Pseudomonas aeruginosa, ATCC27853, read-out: MIC
In short: as §1

[2] = test system: S. aureus 76 (Meth^R)(lac^+); assay: In vitro antibacterial evaluation, MIC by agar dilution, S. aureus 76; settings: Staphylococcus aureus, read-out: MIC
In short: as §1

E. faecalis ATCC 29212 = assay: In vitro antibacterial evaluation, MIC by agar dilution, E. faecalis ATCC 29212; settings: Enterococcus faecalis, ATCC29212; E. faecalis ATCC 29212; read-out: MIC
In short: as §1

S. aureus ATCC 29213 = assay: In vitro antibacterial evaluation, MIC by agar dilution, S. aureus ATCC 29213; settings: Staphylococcus aureus, ATCC29213
In short: as §1

[3] = test system: S. aureus Col8A (Meth^S)(lac^-); assay: In vitro antibacterial evaluation, MIC by agar dilution, S. aureus Col8A; settings: Staphylococcus aureus
In short: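 Log-phase isolates were spot-inoculated at about 10^4 cfu onto Mueller-Hinton agar carrying duplicate two-fold compound levels, 128 μg/mL to ≤0.25 μg/mL, following NCCLS (1991). Plates were read after 16-20 h at 35°-36° C. The lowest growth-inhibiting concentration gave the MIC (μg/ml).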

Compound	MIC (E. faecium ATCC 35667)	MIC [1]	MIC (S. haemolyticus (Meth^R))	MIC (S. aureus ATCC 25923)	MIC (E. coli ATCC 25922)	MIC (P. aeruginosa ATCC 27853)	MIC [2]	MIC (E. faecalis ATCC 29212)	MIC (S. aureus ATCC 29213)	MIC [3]	MIC ([1]; S. epidermidis ATCC 31432, read-out: MIC)	MIC (S. aureus ATCC 25923; S. aureus ATCC 25923, read-out: MIC)	MIC (S. aureus ATCC 29213; S. aureus ATCC 29213, read-out: MIC)
Cc1nnc(SCc2ccccc2SC2=C(C(=O)O)N3C(=O)[C@@H](NC(=O)Cc4ccccc4)[C@H]3SC2)s1 [Cmpd 77]	2 µg/mL (≈ 3.5 µM)	< 0.25 µg/mL	> 32 µg/mL	< 0.25 µg/mL	> 32 µg/mL	> 32 µg/mL	32 µg/mL (≈ 56.1 µM)	1 µg/mL (≈ 1.75 µM)	< 0.25 µg/mL	< 0.25 µg/mL	–	–	–
N#CCC(=O)N[C@@H]1C(=O)N2C(C(=O)O)=C(Sc3cccnc3-c3ccccc3)CS[C@H]12 [Cmpd 85, (7R)-7-[(Cyanoacetyl)amino]-3-(2-phenylpyridin-3-ylthio)-3-cephem-4-carboxylic acid]	2 µg/mL (≈ 4.42 µM)	< 0.25 µg/mL	16 µg/mL (≈ 35.4 µM)	< 0.25 µg/mL	> 32 µg/mL	> 32 µg/mL	16 µg/mL (≈ 35.4 µM)	4 µg/mL (≈ 8.84 µM)	< 0.25 µg/mL	< 0.25 µg/mL	–	–	–
Nc1nc(/C(=N/OCCF)C(=O)N[C@@H]2C(=O)N3C(C(=O)O)=C(Sc4ccnn4-c4ccccc4)CS[C@H]23)cs1 [Cmpd 90, (7R)-7-[(Z)-2-(aminothiazol-4-yl)-2-(2-fluoroethyloxyimino)acetamido]-3-(1-N-phenylpyrazol-5-ylthio)-3-cephem-4-carboxylic acid]	16 µg/mL (≈ 27.1 µM)	–	32 µg/mL (≈ 54.3 µM)	–	4 µg/mL (≈ 6.78 µM)	16 µg/mL (≈ 27.1 µM)	16 µg/mL (≈ 27.1 µM)	32 µg/mL (≈ 54.3 µM)	–	1 µg/mL (≈ 1.7 µM)	< 0.25 µg/mL	0.5 µg/mL (≈ 0.848 µM)	1 µg/mL (≈ 1.7 µM)
Nc1nc(-c2ccccc2)c(SC2=C(C(=O)O)N3C(=O)[C@@H](NC(=O)Cc4ccccc4)[C@H]3SC2)s1 [Cmpd 92, (7R)-7-[(Phenylacetyl)amino]-3-(2-amino-4-phenyl-thiazol-5-ylthio)-3-cephem-4-carboxylic acid]	16 µg/mL (≈ 30.5 µM)	< 0.25 µg/mL	8 µg/mL (≈ 15.2 µM)	< 0.25 µg/mL	> 32 µg/mL	> 32 µg/mL	16 µg/mL (≈ 30.5 µM)	16 µg/mL (≈ 30.5 µM)	< 0.25 µg/mL	< 0.25 µg/mL	–	–	–
